Results from PubChem BioAssay AID1745844 (Carcinogenic Potency Database (CPDB), 2022).
The source made the active and inactive calls. The rule behind the calls is not given here.

Tested on: rodent lifetime carcinogenesis bioassay, tumor incidence TD50
Assay: chronic cancer bioassays in animals – CPDB, compiled studies (AID 1745844)

In the case of `O=NN(c1ccccc1)c1ccccc1`, the TD50 (mouse, strain B6AKF1, females, oral dosing, site: any site (literature study), lesion: several types, types named in the paper, dosed 76 weeks, study length 76 weeks) is reported as 3260 mg/kg/day, the TD50 (mouse, strain B6AKF1, females, oral dosing, site: lung, lesion: adenoma, dosed 76 weeks, study length 76 weeks) is reported as 1020 mg/kg/day and the carcinogen call (mouse, strain B6C3F1, females, in feed, site: any site (literature study), lesion: several types, types named in the paper, dosed 98 weeks, study length 101 weeks) is reported as “negative (inactive)”. The carcinogen call (mouse, strain B6C3F1, males, in feed, site: any site (literature study), lesion: several types, types named in the paper, dosed 101 weeks, study length 101 weeks) was “negative (inactive)”, the TD50 (mouse, strain B6C3F1, males, oral dosing, site: any site (literature study), lesion: several types, types named in the paper, dosed 76 weeks, study length 76 weeks) was 897 mg/kg/day and the TD50 (mouse, strain B6C3F1, males, oral dosing, site: liver, lesion: hepatoma, dosed 76 weeks, study length 76 weeks) was 385 mg/kg/day. For the same compound, the TD50 (mouse, strain B6C3F1, males, oral dosing, site: lung, lesion: adenoma, dosed 76 weeks, study length 76 weeks) was 9670 mg/kg/day, the TD50 (rat, strain CB, males, i.p., site: liver, lesion: hepatoma, dosed 26 weeks, study length 100 weeks) was 18.9 mg/kg/day (inactive) and the TD50 (rat, strain Fischer 344, females, in feed, site: any site (literature study), lesion: several types, types named in the paper, dosed 100 weeks, study length 100 weeks) was 159 mg/kg/day. The TD50 (rat, strain Fischer 344, females, in feed, site: urinary bladder, lesion: transitional-cell carcinoma, dosed 100 weeks, study length 100 weeks) was 116 mg/kg/day, the TD50 (rat, strain Fischer 344, males, in feed, site: all sites, lesion: fibroma, dosed 100 weeks, study length 100 weeks) was 537 mg/kg/day and the TD50 (rat, strain Fischer 344, males, in feed, site: any site (literature study), lesion: several types, types named in the paper, dosed 100 weeks, study length 100 weeks) was 136000 mg/kg/day. For the same compound, the TD50 (rat, strain Fischer 344, males, in feed, site: liver, lesion: hepatocellular adenoma + hepatocellular carcinoma + neoplastic nodule, dosed 100 weeks, study length 100 weeks) was 5450 mg/kg/day and the TD50 (rat, strain Fischer 344, males, in feed, site: urinary bladder, lesion: transitional-cell carcinoma, dosed 100 weeks, study length 100 weeks) was 299 mg/kg/day.

With `Nc1ccc(N=Nc2ccccc2)c(N)n1` the TD50 (mouse, strain B6C3F1, females, in feed, site: any site (literature study), lesion: several types, types named in the paper, dosed 80 weeks, study length 105 weeks) was 89.7 mg/kg/day, the TD50 (mouse, strain B6C3F1, females, in feed, site: liver, lesion: hepatocellular adenoma + hepatocellular carcinoma + neoplastic nodule, dosed 80 weeks, study length 105 weeks) was 71.1 mg/kg/day and the TD50 (mouse, strain B6C3F1, females, in feed, site: liver, lesion: hepatocellular adenoma + hepatocellular carcinoma, dosed 80 weeks, study length 105 weeks) was 71.1 mg/kg/day. The TD50 (mouse, strain B6C3F1, females, in feed, site: liver, lesion: hepatocellular carcinoma, dosed 80 weeks, study length 105 weeks) was 132 mg/kg/day, the TD50 (mouse, strain B6C3F1, females, in feed, site: lung, lesion: alveolar/bronchiolar adenoma + alveolar/bronchiolar carcinoma, dosed 80 weeks, study length 105 weeks) was 4650 mg/kg/day and the TD50 (mouse, strain B6C3F1, males, in feed, site: any site (literature study), lesion: several types, types named in the paper, dosed 80 weeks, study length 105 weeks) was 496 mg/kg/day (inactive). For the same compound, the TD50 (mouse, strain B6C3F1, males, in feed, site: liver, lesion: hepatocellular adenoma + hepatocellular carcinoma + neoplastic nodule, dosed 80 weeks, study length 105 weeks) was 811 mg/kg/day, the TD50 (mouse, strain B6C3F1, males, in feed, site: lung, lesion: alveolar/bronchiolar adenoma + alveolar/bronchiolar carcinoma, dosed 80 weeks, study length 105 weeks) was 1300 mg/kg/day and the TD50 (rat, strain Fischer 344, females, in feed, site: colon, lesion: adenocarcinoma, NOS, dosed 78 weeks, study length 105 weeks) was 687 mg/kg/day. It also gave a TD50 (rat, strain Fischer 344, males, in feed, site: colon + rectum, lesion: adenocarcinoma, NOS + adenoma, NOS, dosed 78 weeks, study length 104 weeks) of 303 mg/kg/day, a TD50 (rat, strain Fischer 344, males, in feed, site: colon + rectum, lesion: adenocarcinoma, NOS, dosed 78 weeks, study length 104 weeks) of 333 mg/kg/day and a TD50 (rat, strain Fischer 344, males, in feed, site: liver, lesion: hepatocellular adenoma + hepatocellular carcinoma + neoplastic nodule, dosed 78 weeks, study length 104 weeks) of 2170 mg/kg/day.

In the case of `Cn1cnc2nc(N)[nH]c(=O)c21`, the TD50 (rat, strain BR 46, both sexes, i.v., site: any site (literature study), lesion: malignant tumor, dosed 106 weeks, study length 126 weeks) is reported as 8.24 mg/kg/day (inactive).

`C=CCc1ccc(O)c(OC)c1` was tested, and the TD50 (mouse, strain B6C3F1, females, in feed, site: liver, lesion: hepatocellular adenoma + hepatocellular carcinoma + neoplastic nodule, dosed 103 weeks, study length 104 weeks) was 2910 mg/kg/day, the TD50 (mouse, strain B6C3F1, females, in feed, site: liver, lesion: hepatocellular adenoma + hepatocellular carcinoma, dosed 103 weeks, study length 104 weeks) was 2910 mg/kg/day and the TD50 (mouse, strain B6C3F1, females, in feed, site: lung, lesion: alveolar/bronchiolar adenoma + alveolar/bronchiolar carcinoma, dosed 103 weeks, study length 104 weeks) was 25300 mg/kg/day. It also gave a TD50 (mouse, strain B6C3F1, males, in feed, site: any site (literature study), lesion: several types, types named in the paper, dosed 103 weeks, study length 104 weeks) of 1550 mg/kg/day, a TD50 (mouse, strain B6C3F1, males, in feed, site: liver, lesion: hepatocellular adenoma + hepatocellular carcinoma + neoplastic nodule, dosed 103 weeks, study length 104 weeks) of 451 mg/kg/day and a TD50 (mouse, strain B6C3F1, males, in feed, site: liver, lesion: hepatocellular adenoma + hepatocellular carcinoma, dosed 103 weeks, study length 104 weeks) of 451 mg/kg/day. The TD50 (mouse, strain B6C3F1, males, in feed, site: liver, lesion: hepatocellular adenoma, dosed 103 weeks, study length 104 weeks) was 781 mg/kg/day, the TD50 (mouse, strain B6C3F1, males, in feed, site: liver, lesion: hepatocellular carcinoma, dosed 103 weeks, study length 104 weeks) was 710 mg/kg/day and the TD50 (mouse, strain B6C3F1, males, in feed, site: thyroid gland, lesion: follicular-cell adenoma, dosed 103 weeks, study length 104 weeks) was 8520 mg/kg/day. For the same compound, the carcinogen call (mouse, strain Charles River CD1, females, in feed, site: liver, lesion: one or several types, types not named, dosed 50 weeks, study length 78 weeks) was “negative (inactive)”, the carcinogen call (mouse, strain Charles River CD1, females, in feed, site: lung, lesion: adenoma, dosed 50 weeks, study length 78 weeks) was “negative (inactive)” and the carcinogen call (rat, strain Fischer 344, females, in feed, site: any site (literature study), lesion: several types, types named in the paper, dosed 103 weeks, study length 104 weeks) was “negative (inactive)”. The TD50 (rat, strain Fischer 344, males, in feed, site: any site (literature study), lesion: several types, types named in the paper, dosed 103 weeks, study length 104 weeks) was 293 mg/kg/day and the TD50 (rat, strain Fischer 344, males, in feed, site: lung, lesion: alveolar/bronchiolar adenoma + alveolar/bronchiolar carcinoma, dosed 103 weeks, study length 104 weeks) was 424 mg/kg/day (inactive).

Compound `O=C1c2ccccc2C(=O)c2c(O)cccc21` has a TD50 (rat, strain ACI/n, males, in feed, site: cecum, lesion: adenocarcinoma, dosed 68 weeks, study length 68 weeks) of 619 mg/kg/day, a TD50 (rat, strain ACI/n, males, in feed, site: cecum, lesion: adenoma, dosed 68 weeks, study length 68 weeks) of 277 mg/kg/day and a TD50 (rat, strain ACI/n, males, in feed, site: colon, lesion: adenocarcinoma, dosed 68 weeks, study length 68 weeks) of 246 mg/kg/day. It also gave a TD50 (rat, strain ACI/n, males, in feed, site: colon, lesion: adenoma, dosed 68 weeks, study length 68 weeks) of 219 mg/kg/day, a TD50 (rat, strain ACI/n, males, in feed, site: forestomach, lesion: papilloma, dosed 68 weeks, study length 68 weeks) of 789 mg/kg/day and a TD50 (rat, strain ACI/n, males, in feed, site: large intestine, lesion: several types, types named in the paper, dosed 68 weeks, study length 68 weeks) of 59.2 mg/kg/day. It also gave a TD50 (rat, strain ACI/n, males, in feed, site: liver, lesion: hepatocellular carcinoma, dosed 68 weeks, study length 68 weeks) of 789 mg/kg/day, a TD50 (rat, strain ACI/n, males, in feed, site: liver, lesion: neoplastic nodule, dosed 68 weeks, study length 68 weeks) of 219 mg/kg/day and a TD50 (rat, strain ACI/n, males, in feed, site: liver, lesion: several types, types named in the paper, dosed 68 weeks, study length 68 weeks) of 219 mg/kg/day. It also gave a TD50 (rat, strain ACI/n, males, in feed, site: stomach, glandular, lesion: adenoma, dosed 68 weeks, study length 68 weeks) of 3340 mg/kg/day, a TD50 (rat, strain ACI/n, males, in feed, site: stomach, lesion: several types, types named in the paper, dosed 68 weeks, study length 68 weeks) of 619 mg/kg/day and a TD50 (rat, strain Fischer 344, males, in feed, site: cecum, lesion: adenocarcinoma, dosed 78 weeks, study length 78 weeks) of 432 mg/kg/day. The TD50 (rat, strain Fischer 344, males, in feed, site: colon, lesion: adenocarcinoma, dosed 78 weeks, study length 78 weeks) was 432 mg/kg/day, the TD50 (rat, strain Fischer 344, males, in feed, site: colon, lesion: several types, types named in the paper, dosed 78 weeks, study length 78 weeks) was 432 mg/kg/day and the TD50 (rat, strain Fischer 344, males, in feed, site: large intestine, lesion: several types, types named in the paper, dosed 78 weeks, study length 78 weeks) was 222 mg/kg/day.

In the case of `P`, the TD50 (rat, strain Fischer 344, females, inhaled, site: liver, lesion: hepatocellular adenoma, dosed 104 weeks, study length 104 weeks) is reported as 53.1 mg/kg/day (inactive), the carcinogen call (rat, strain Fischer 344, females, inhaled, site: liver, lesion: one or several types, types not named, dosed 52 weeks, study length 52 weeks) is reported as “negative (inactive)” and the TD50 (rat, strain Fischer 344, males, inhaled, site: liver, lesion: hepatocellular adenoma, dosed 104 weeks, study length 104 weeks) is reported as 5.69 mg/kg/day (inactive). The carcinogen call (rat, strain Fischer 344, males, inhaled, site: liver, lesion: hepatocellular carcinoma, dosed 104 weeks, study length 104 weeks) was “negative (inactive)”, the carcinogen call (rat, strain Fischer 344, males, inhaled, site: liver, lesion: one or several types, types not named, dosed 52 weeks, study length 52 weeks) was “negative (inactive)” and the carcinogen call (rat, strain Sprague-Dawley, females, in feed, site: any site (literature study), lesion: one or several types, types not named, dosed 52 weeks, study length 52 weeks) was “negative (inactive)”. The carcinogen call (rat, strain Sprague-Dawley, females, in feed, site: any site (literature study), lesion: several types, types named in the paper, dosed 104 weeks, study length 104 weeks) was “negative (inactive)”, the carcinogen call (rat, strain Sprague-Dawley, males, in feed, site: any site (literature study), lesion: one or several types, types not named, dosed 52 weeks, study length 52 weeks) was “negative (inactive)” and the carcinogen call (rat, strain Sprague-Dawley, males, in feed, site: any site (literature study), lesion: several types, types named in the paper, dosed 104 weeks, study length 104 weeks) was “negative (inactive)”.

`C1CCNCC1` showed a TD50 (rat, strain MRC, females, in drinking water, site: any site (literature study), lesion: several types, types named in the paper, dosed 75 weeks, study length 104 weeks) of 63.3 mg/kg/day.

With `COP(=S)(OC)Oc1ccc([N+](=O)[O-])cc1` the carcinogen call (mouse, strain B6C3F1, females, in feed, site: any site (literature study), lesion: several types, types named in the paper, dosed 102 weeks, study length 102 weeks) was “negative (inactive)”, the TD50 (mouse, strain B6C3F1, females, in feed, site: lung, lesion: alveolar/bronchiolar adenoma + alveolar/bronchiolar carcinoma, dosed 102 weeks, study length 102 weeks) was 125 mg/kg/day and the carcinogen call (mouse, strain B6C3F1, males, in feed, site: any site (literature study), lesion: several types, types named in the paper, dosed 102 weeks, study length 102 weeks) was “negative (inactive)”. The TD50 (mouse, strain B6C3F1, males, in feed, site: lung, lesion: alveolar/bronchiolar adenoma + alveolar/bronchiolar carcinoma, dosed 102 weeks, study length 102 weeks) was 58.1 mg/kg/day, the carcinogen call (rat, strain Fischer 344, females, in feed, site: any site (literature study), lesion: several types, types named in the paper, dosed 105 weeks, study length 105 weeks) was “negative (inactive)” and the carcinogen call (rat, strain Fischer 344, males, in feed, site: any site (literature study), lesion: several types, types named in the paper, dosed 105 weeks, study length 105 weeks) was “negative (inactive)”.

With `[O]=[Nb](=[O])[OH]` the carcinogen call (mouse, strain Charles River CD1, both sexes, in drinking water, site: any site (literature study), lesion: malignant tumor, dosed 135 weeks, study length 135 weeks) was “negative (inactive)”, the carcinogen call (mouse, strain Charles River CD1, both sexes, in drinking water, site: any site (literature study), lesion: one or several types, types not named, dosed 135 weeks, study length 135 weeks) was “negative (inactive)” and the carcinogen call (mouse, strain Charles River CD1, both sexes, in drinking water, site: liver, lesion: one or several types, types not named, dosed 135 weeks, study length 135 weeks) was “negative (inactive)”. The carcinogen call (mouse, strain Charles River CD1, both sexes, in drinking water, site: lung, lesion: one or several types, types not named, dosed 135 weeks, study length 135 weeks) was “negative (inactive)”.
